# Measurements from the Kinase Knowledgebase extract (Sharma et al. 2016).
# Target: EGFR (human) (UniProt P00533)
# Details: kb
# EGFR (human), sequence (P00533 whole entry, looked up): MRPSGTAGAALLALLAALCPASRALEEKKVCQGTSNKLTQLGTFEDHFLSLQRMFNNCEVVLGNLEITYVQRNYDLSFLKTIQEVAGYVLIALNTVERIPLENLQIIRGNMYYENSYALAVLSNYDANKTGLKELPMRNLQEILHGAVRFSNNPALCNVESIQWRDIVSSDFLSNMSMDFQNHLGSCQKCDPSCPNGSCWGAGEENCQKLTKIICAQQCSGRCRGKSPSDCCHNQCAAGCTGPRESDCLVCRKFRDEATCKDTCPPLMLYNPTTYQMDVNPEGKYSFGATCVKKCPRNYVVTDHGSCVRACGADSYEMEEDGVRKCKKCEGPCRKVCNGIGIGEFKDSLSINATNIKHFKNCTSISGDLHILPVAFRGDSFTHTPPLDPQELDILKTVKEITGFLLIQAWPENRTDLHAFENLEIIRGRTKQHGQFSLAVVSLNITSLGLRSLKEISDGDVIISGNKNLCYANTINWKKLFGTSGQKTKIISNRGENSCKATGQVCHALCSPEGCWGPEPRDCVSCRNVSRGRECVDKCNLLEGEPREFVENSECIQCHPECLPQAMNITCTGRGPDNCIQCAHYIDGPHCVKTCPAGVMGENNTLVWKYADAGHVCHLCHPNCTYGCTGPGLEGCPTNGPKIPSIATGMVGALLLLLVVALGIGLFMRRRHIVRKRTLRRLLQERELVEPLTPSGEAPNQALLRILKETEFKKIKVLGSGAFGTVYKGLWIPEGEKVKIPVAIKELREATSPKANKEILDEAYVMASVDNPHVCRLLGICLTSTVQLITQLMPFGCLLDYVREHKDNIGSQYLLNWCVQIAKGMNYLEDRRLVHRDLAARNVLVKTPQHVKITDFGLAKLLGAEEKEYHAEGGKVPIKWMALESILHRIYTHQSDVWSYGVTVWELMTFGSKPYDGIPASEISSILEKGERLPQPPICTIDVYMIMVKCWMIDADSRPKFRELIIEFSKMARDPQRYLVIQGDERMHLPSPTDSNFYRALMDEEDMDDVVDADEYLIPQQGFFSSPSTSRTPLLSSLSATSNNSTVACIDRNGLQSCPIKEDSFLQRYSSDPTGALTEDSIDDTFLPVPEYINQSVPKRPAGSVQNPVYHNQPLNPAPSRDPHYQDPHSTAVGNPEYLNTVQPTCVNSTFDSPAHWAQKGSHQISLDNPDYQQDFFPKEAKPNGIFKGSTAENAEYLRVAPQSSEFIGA
row,Compound,IC50
1,COc1cc(OC[C@H]2C[C@H](O)CN2C(C)=O)c2c(Nc3ccc(F)c(Cl)c3)ncnc2c1,75 nM
2,COc1cc(OC[C@@H]2CCCN2C(=O)CN2CCCC2)c2c(Nc3ccc(F)c(Cl)c3)ncnc2c1,130 nM
3,COc1cc(OC[C@@H]2C[C@@H](O)CN2C(=O)CO)c2c(Nc3ccc(F)c(Cl)c3)ncnc2c1,156 nM
4,COc1cc(OC[C@H]2C[C@@H](O)CN2C(=O)CO)c2c(Nc3ccc(F)c(Cl)c3)ncnc2c1,118 nM
5,O=C(CO)N1CCC[C@@H]1COc1cc(OCCO)cc2ncnc(Nc3ccc(F)c(Cl)c3)c12,128 nM
6,COc1cc(OC[C@H]2CCCN2C(=O)CN(C)C)c2c(Nc3ccc(F)c(Cl)c3)ncnc2c1,138 nM

# More lines, now with the values ahead:
row,IC50,Compound
1,141 nM,COc1cc(OC[C@@H]2CCCN2C(=O)CN(C)C)c2c(Nc3ccc(F)c(Cl)c3)ncnc2c1
2,112 nM,COc1cc(OC[C@@H]2C[C@H](O)CN2C(=O)CN(C)C)c2c(Nc3ccc(F)c(Cl)c3)ncnc2c1
3,91 nM,COc1cc(OC[C@H]2CCCN2C(=O)CO)c2c(Nc3ccc(F)c(Cl)c3)ncnc2c1
4,99 nM,CCOCCOc1cc(OC[C@H]2CCCN2C(=O)CO)c2c(Nc3ccc(F)c(Cl)c3)ncnc2c1
5,28 nM,COc1cc(OC[C@H]2CCCN2C(C)=O)c2c(Nc3ccc(F)c(Cl)c3)ncnc2c1
6,288 nM,COCC(=O)N1C[C@@H](O)C[C@@H]1COc1cc(OC)cc2ncnc(Nc3ccc(F)c(Cl)c3)c12
